Measurements reported in PubChem BioAssay (NCI).
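Where inhibition never reached the appropriate level, the endpoint shown equals the highest concentration tested. Otherwise, values were interpolated linearly from a five-concentration, 48-hour dose response in 96-well plates. At the TGI there is no net growth.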

Experiments:
Test in all cases: NCI-60 cell line screen, 48 h
SR leukemia = test system: SR leukemia
HOP-62 NSCLC = test system: HOP-62 NSCLC
SN12C renal = test system: SN12C renal
786-0 renal = test system: 786-0 renal
OVCAR-8 ovarian = test system: OVCAR-8 ovarian
LOX IMVI melanoma = test system: LOX IMVI melanoma
BT-549 breast = test system: BT-549 breast
ACHN renal = test system: ACHN renal
UO-31 renal = test system: UO-31 renal
DU-145 prostate = test system: DU-145 prostate
CAKI-1 renal = test system: CAKI-1 renal
M14 melanoma = test system: M14 melanoma
RPMI-8226 leukemia = test system: RPMI-8226 leukemia
MOLT-4 leukemia = test system: MOLT-4 leukemia
NCI-H460 lung = test system: NCI-H460 lung
KM12 colon = test system: KM12 colon
NCI/ADR-RES ovarian = test system: NCI/ADR-RES ovarian
SF-539 CNS = test system: SF-539 CNS
OVCAR-4 ovarian = test system: OVCAR-4 ovarian
HCT-15 colon = test system: HCT-15 colon
MCF7 breast = test system: MCF7 breast
NCI-H522 lung = test system: NCI-H522 lung
HT29 colon = test system: HT29 colon
OVCAR-5 ovarian = test system: OVCAR-5 ovarian
MDA-N = test system: MDA-N
UACC-257 melanoma = test system: UACC-257 melanoma
SK-MEL-2 melanoma = test system: SK-MEL-2 melanoma
COLO 205 colon = test system: COLO 205 colon
HOP-92 NSCLC = test system: HOP-92 NSCLC
HL-60(TB) leukemia = test system: HL-60(TB) leukemia
EKVX NSCLC = test system: EKVX NSCLC
MDA-MB-231 breast = test system: MDA-MB-231 breast
SK-MEL-5 melanoma = test system: SK-MEL-5 melanoma
CCRF-CEM leukemia = test system: CCRF-CEM leukemia
SF-295 CNS = test system: SF-295 CNS
A549 NSCLC = test system: A549 NSCLC
U251 CNS = test system: U251 CNS
SNB-19 CNS = test system: SNB-19 CNS
TK-10 renal = test system: TK-10 renal
SNB-75 CNS = test system: SNB-75 CNS
K-562 leukemia = test system: K-562 leukemia
SW-620 colon = test system: SW-620 colon
HCT-116 colon = test system: HCT-116 colon
PC-3 prostate = test system: PC-3 prostate
T-47D breast = test system: T-47D breast
MDA-MB-435 = test system: MDA-MB-435
OVCAR-3 ovarian = test system: OVCAR-3 ovarian
IGROV1 ovarian = test system: IGROV1 ovarian
SK-MEL-28 melanoma = test system: SK-MEL-28 melanoma
UACC-62 melanoma = test system: UACC-62 melanoma
HCC-2998 colon = test system: HCC-2998 colon
SF-268 CNS = test system: SF-268 CNS
NCI-H23 lung = test system: NCI-H23 lung
HS 578T breast = test system: HS 578T breast
NCI-H226 lung = test system: NCI-H226 lung
A498 renal = test system: A498 renal
MALME-3M melanoma = test system: MALME-3M melanoma
SK-OV-3 ovarian = test system: SK-OV-3 ovarian
RXF 393 renal = test system: RXF 393 renal

c1cc(CSP234N5CCN2CCN3CCN4CC5)cc(CSP234N5CCN2CCN3CCN4CC5)c1
TGI (SR leukemia): 28.2 µM | TGI (HOP-62 NSCLC): > 100 µM | TGI (SN12C renal): > 100 µM | TGI (786-0 renal): > 100 µM | TGI (OVCAR-8 ovarian): 41.9 µM | TGI (LOX IMVI melanoma): 35.1 µM | TGI (BT-549 breast): 51.6 µM | TGI (ACHN renal): > 100 µM | TGI (UO-31 renal): 39.3 µM | TGI (DU-145 prostate): > 100 µM | TGI (CAKI-1 renal): > 100 µM | TGI (M14 melanoma): 49 µM | TGI (RPMI-8226 leukemia): > 100 µM | TGI (MOLT-4 leukemia): 49.5 µM | TGI (NCI-H460 lung): > 100 µM | TGI (KM12 colon): 47.1 µM | TGI (NCI/ADR-RES ovarian): > 100 µM | TGI (SF-539 CNS): 55.5 µM | TGI (OVCAR-4 ovarian): > 100 µM | TGI (HCT-15 colon): 70.8 µM | TGI (MCF7 breast): 68.6 µM | TGI (NCI-H522 lung): 43.1 µM | TGI (HT29 colon): 61 µM | TGI (OVCAR-5 ovarian): > 100 µM | TGI (MDA-N): 79.9 µM | TGI (UACC-257 melanoma): 34.9 µM | TGI (SK-MEL-2 melanoma): 45.1 µM | TGI (COLO 205 colon): 49.9 µM | TGI (HOP-92 NSCLC): 64.5 µM | TGI (HL-60(TB) leukemia): 28.1 µM | TGI (EKVX NSCLC): > 100 µM | TGI (MDA-MB-231 breast): 38.2 µM | TGI (SK-MEL-5 melanoma): 45.5 µM | TGI (CCRF-CEM leukemia): 62.3 µM | TGI (SF-295 CNS): 46.2 µM | TGI (A549 NSCLC): > 100 µM | TGI (U251 CNS): 56.2 µM | TGI (SNB-19 CNS): > 100 µM | TGI (TK-10 renal): > 100 µM | TGI (SNB-75 CNS): 76.4 µM | TGI (K-562 leukemia): > 100 µM | TGI (SW-620 colon): > 100 µM | TGI (HCT-116 colon): > 100 µM | TGI (PC-3 prostate): > 100 µM | TGI (T-47D breast): > 100 µM | TGI (MDA-MB-435): 59.3 µM | TGI (OVCAR-3 ovarian): > 100 µM | TGI (IGROV1 ovarian): 76.6 µM | TGI (SK-MEL-28 melanoma): 44.6 µM | TGI (UACC-62 melanoma): 36.6 µM | TGI (HCC-2998 colon): 57.5 µM | TGI (SF-268 CNS): > 100 µM | TGI (NCI-H23 lung): > 100 µM | TGI (HS 578T breast): 69.3 µM

CCOC(=O)Nc1cc2c(c(N)n1)N=C(c1ccc(Cl)cc1Cl)CN2
TGI (SR leukemia): > 100 µM | TGI (HOP-62 NSCLC): 19.8 µM | TGI (SN12C renal): 28.8 µM | TGI (786-0 renal): 18.5 µM | TGI (NCI-H226 lung): 18 µM | TGI (OVCAR-8 ovarian): 37.2 µM | TGI (LOX IMVI melanoma): 44.8 µM | TGI (BT-549 breast): 33.1 µM | TGI (ACHN renal): 20.8 µM | TGI (UO-31 renal): 22.7 µM | TGI (A498 renal): 20.6 µM | TGI (DU-145 prostate): 13.3 µM | TGI (CAKI-1 renal): 33.7 µM | TGI (M14 melanoma): 43.4 µM | TGI (RPMI-8226 leukemia): > 100 µM | TGI (MOLT-4 leukemia): > 100 µM | TGI (NCI-H460 lung): 6.3 µM | TGI (KM12 colon): 2.83 µM | TGI (NCI/ADR-RES ovarian): 18.9 µM | TGI (SF-539 CNS): 0.0475 µM | TGI (OVCAR-4 ovarian): 39.7 µM | TGI (HCT-15 colon): 9.02 µM | TGI (MCF7 breast): 21.7 µM | TGI (NCI-H522 lung): 1.08 µM | TGI (HT29 colon): 0.641 µM | TGI (OVCAR-5 ovarian): 45.1 µM | TGI (MDA-N): 18.6 µM | TGI (UACC-257 melanoma): 90.6 µM | TGI (SK-MEL-2 melanoma): 19.7 µM | TGI (COLO 205 colon): 4.85 µM | TGI (HOP-92 NSCLC): 44.7 µM | TGI (HL-60(TB) leukemia): 0.0585 µM | TGI (EKVX NSCLC): 31.9 µM | TGI (MDA-MB-231 breast): 16.2 µM | TGI (SK-MEL-5 melanoma): 0.999 µM | TGI (CCRF-CEM leukemia): > 100 µM | TGI (SF-295 CNS): 0.0108 µM | TGI (A549 NSCLC): 19.3 µM | TGI (U251 CNS): 18 µM | TGI (SNB-19 CNS): 23.2 µM | TGI (TK-10 renal): 35.4 µM | TGI (SNB-75 CNS): 36.5 µM | TGI (K-562 leukemia): 11.9 µM | TGI (SW-620 colon): 30.4 µM | TGI (HCT-116 colon): 12.7 µM | TGI (MALME-3M melanoma): 29.6 µM | TGI (PC-3 prostate): 14.9 µM | TGI (T-47D breast): 43.1 µM | TGI (MDA-MB-435): < 0.0239 µM | TGI (SK-OV-3 ovarian): 23.2 µM | TGI (OVCAR-3 ovarian): 0.0133 µM | TGI (IGROV1 ovarian): 34.3 µM | TGI (SK-MEL-28 melanoma): 29.5 µM | TGI (UACC-62 melanoma): 11.6 µM | TGI (HCC-2998 colon): 2.6 µM | TGI (SF-268 CNS): 25.5 µM | TGI (NCI-H23 lung): 27.5 µM | TGI (HS 578T breast): 1.41 µM

COc1ccc2c(c1O)[C@@]13CCCC=C1[C@@H](C2)N(C)CC3
TGI (SR leukemia): 81.5 µM | TGI (HOP-62 NSCLC): > 100 µM | TGI (SN12C renal): > 100 µM | TGI (786-0 renal): > 100 µM | TGI (NCI-H226 lung): > 100 µM | TGI (OVCAR-8 ovarian): > 100 µM | TGI (LOX IMVI melanoma): > 100 µM | TGI (BT-549 breast): > 100 µM | TGI (ACHN renal): > 100 µM | TGI (UO-31 renal): > 100 µM | TGI (DU-145 prostate): > 100 µM | TGI (CAKI-1 renal): > 100 µM | TGI (M14 melanoma): > 100 µM | TGI (RPMI-8226 leukemia): > 100 µM | TGI (MOLT-4 leukemia): > 100 µM | TGI (NCI-H460 lung): > 100 µM | TGI (KM12 colon): > 100 µM | TGI (NCI/ADR-RES ovarian): > 100 µM | TGI (OVCAR-4 ovarian): > 100 µM | TGI (HCT-15 colon): > 100 µM | TGI (MCF7 breast): > 100 µM | TGI (NCI-H522 lung): 76.2 µM | TGI (HT29 colon): > 100 µM | TGI (OVCAR-5 ovarian): > 100 µM | TGI (MDA-N): > 100 µM | TGI (UACC-257 melanoma): > 100 µM | TGI (SK-MEL-2 melanoma): > 100 µM | TGI (COLO 205 colon): > 100 µM | TGI (RXF 393 renal): > 100 µM | TGI (HOP-92 NSCLC): > 100 µM | TGI (HL-60(TB) leukemia): > 100 µM | TGI (EKVX NSCLC): > 100 µM | TGI (MDA-MB-231 breast): > 100 µM | TGI (SK-MEL-5 melanoma): > 100 µM | TGI (CCRF-CEM leukemia): > 100 µM | TGI (SF-295 CNS): > 100 µM | TGI (A549 NSCLC): > 100 µM | TGI (U251 CNS): > 100 µM | TGI (SNB-19 CNS): > 100 µM | TGI (TK-10 renal): > 100 µM | TGI (SNB-75 CNS): > 100 µM | TGI (K-562 leukemia): > 100 µM | TGI (SW-620 colon): > 100 µM | TGI (HCT-116 colon): > 100 µM | TGI (MALME-3M melanoma): 3.35 µM | TGI (PC-3 prostate): > 100 µM | TGI (T-47D breast): > 100 µM | TGI (MDA-MB-435): > 100 µM | TGI (SK-OV-3 ovarian): > 100 µM | TGI (OVCAR-3 ovarian): > 100 µM | TGI (IGROV1 ovarian): > 100 µM | TGI (SK-MEL-28 melanoma): > 100 µM | TGI (UACC-62 melanoma): > 100 µM | TGI (HCC-2998 colon): > 100 µM | TGI (SF-268 CNS): > 100 µM | TGI (NCI-H23 lung): > 100 µM | TGI (HS 578T breast): > 100 µM
